From PMC6651613, “Identification and Characterization of trans-Isopentenyl Diphosphate Synthases Involved in Herbivory-Induced Volatile Terpene Formation in Populus trichocarpa” (Molecules, 2019) come the findings set out here.

Common to all, as to experiment: LC-MS/MS product analysis
Holding throughout (assay type): biochemical
What all share (conditions): 50 uM IPP and 50 uM DMAPP, 10 mM MgCl2, 0.1 mM MnCl2, pH 7.2, 30 °C, 1 h

The target in one assay is T1, PtGPPS1.LSU (Populus trichocarpa, UniProt A0A514TNQ6).
T1 construct: N-terminally truncated ORF (delta71, signal peptide removed), C-terminal His tag (pASK-IBA33+), E. coli TOP10, Ni-NTA purified; cloning primer encodes MPTFDFKSY
T1 sequence (A0A514TNQ6 70-365): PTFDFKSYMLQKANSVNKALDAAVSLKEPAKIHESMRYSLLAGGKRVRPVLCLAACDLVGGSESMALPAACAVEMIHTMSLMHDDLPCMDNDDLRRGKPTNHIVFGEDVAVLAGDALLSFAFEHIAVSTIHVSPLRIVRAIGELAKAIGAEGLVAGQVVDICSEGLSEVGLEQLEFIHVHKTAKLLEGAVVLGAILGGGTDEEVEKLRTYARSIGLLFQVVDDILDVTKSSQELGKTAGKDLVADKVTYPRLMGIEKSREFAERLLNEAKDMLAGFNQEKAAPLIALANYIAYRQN

In the next assay the target is T2, PtFPPS1 (Populus trichocarpa, UniProt A0A514TNK7).
T2 construct: full-length ORF, N-terminal His tag (pASK-IBA37+), E. coli TOP10, Ni-NTA purified; cloning primer encodes MADLKSTF
T2 sequence (A0A514TNK7 1-342): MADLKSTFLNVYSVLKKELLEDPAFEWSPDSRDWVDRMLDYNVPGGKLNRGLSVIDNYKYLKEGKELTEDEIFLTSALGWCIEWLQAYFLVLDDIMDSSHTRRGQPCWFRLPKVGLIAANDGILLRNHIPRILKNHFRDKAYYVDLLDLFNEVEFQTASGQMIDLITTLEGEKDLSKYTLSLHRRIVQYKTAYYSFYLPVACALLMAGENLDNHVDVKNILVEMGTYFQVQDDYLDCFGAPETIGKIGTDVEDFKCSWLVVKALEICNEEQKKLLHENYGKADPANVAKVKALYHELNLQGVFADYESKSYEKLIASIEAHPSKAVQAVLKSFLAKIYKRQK

The next assay deals with T3, PtGPPS2.LSU (Populus trichocarpa, UniProt A0A514TNS4).
T3 construct: N-terminally truncated ORF (delta72, signal peptide removed), C-terminal His tag (pASK-IBA33+), E. coli TOP10, Ni-NTA purified; cloning primer encodes MPTFDFKSY
T3 sequence (A0A514TNS4 71-366): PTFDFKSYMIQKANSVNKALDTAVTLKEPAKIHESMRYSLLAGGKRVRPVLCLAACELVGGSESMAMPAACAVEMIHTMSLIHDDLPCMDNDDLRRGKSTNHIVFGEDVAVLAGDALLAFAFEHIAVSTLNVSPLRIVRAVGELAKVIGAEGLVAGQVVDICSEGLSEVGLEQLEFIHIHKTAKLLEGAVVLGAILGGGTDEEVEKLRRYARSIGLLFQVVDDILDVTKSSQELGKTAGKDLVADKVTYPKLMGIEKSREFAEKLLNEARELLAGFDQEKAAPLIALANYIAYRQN

The target in assay [1] is T4, PtGPPS1.LSU + PtGPPS.SSU1 (Populus trichocarpa, UniProt A0A514TNQ6).
T4 construct: equal amounts of separately purified LSU (delta71) and SSU1 (delta41) mixed; C-terminal His tags, E. coli TOP10; heterodimer proposed, not isolated; with Geranyl diphosphate synthase small subunit 1
T4 sequence (A0A514TNQ6 70-365): as the sequence (A0A514TNQ6 70-365) above
T4 sequence (A0A514TNK9 42-312 partner): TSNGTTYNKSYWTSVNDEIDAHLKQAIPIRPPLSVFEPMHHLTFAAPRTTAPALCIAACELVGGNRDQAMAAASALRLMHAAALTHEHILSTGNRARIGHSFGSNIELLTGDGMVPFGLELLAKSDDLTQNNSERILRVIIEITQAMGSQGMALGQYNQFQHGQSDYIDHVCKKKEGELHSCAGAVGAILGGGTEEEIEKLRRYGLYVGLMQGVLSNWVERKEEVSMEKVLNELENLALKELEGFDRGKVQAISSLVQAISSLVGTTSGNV

Assay [2] deals with T5, PtGPPS2.LSU + PtGPPS.SSU1 (Populus trichocarpa, UniProt A0A514TNS4).
T5 construct: separately purified LSU (delta72) and SSU1 (delta41) mixed; C-terminal His tags, E. coli TOP10; heterodimer proposed, not isolated; with Geranyl diphosphate synthase small subunit 1
T5 sequence (A0A514TNS4 71-366): as the sequence (A0A514TNS4 71-366) above
T5 sequence (A0A514TNK9 42-312 partner): as the sequence (A0A514TNK9 42-312 partner) above

`C=C(C)CCOP(=O)(O)OP(=O)(O)O` [IPP]: the LC-MS/MS product analysis result is “produced GPP and GGPP when tested with IPP and DMAPP as substrates” at PtGPPS1.LSU; “PtFPPS1 catalyzes the condensation of IPP and DMAPP to FPP and traces of GGPP” at PtFPPS1; “produced GPP and GGPP when tested with IPP and DMAPP as substrates” on PtGPPS2.LSU; “incubated with IPP and DMAPP either in the presence (black bars) or absence” in assay [1]; “incubated with IPP and DMAPP either in the presence (black bars) or absence” in assay [2].
On to `CC(C)=CCOP(=O)(O)OP(=O)(O)O` [DMAPP], for which the LC-MS/MS product analysis entry is “produced GPP and GGPP when tested with IPP and DMAPP as substrates” at PtGPPS1.LSU; “PtFPPS1 catalyzes the condensation of IPP and DMAPP to FPP and traces of GGPP” on PtFPPS1; “produced GPP and GGPP when tested with IPP and DMAPP as substrates” on PtGPPS2.LSU; “incubated with IPP and DMAPP either in the presence (black bars) or absence” in assay [1]; “incubated with IPP and DMAPP either in the presence (black bars) or absence” in assay [2].
